Patent US20240409530A1, “Disubstituted Pyrimidine Compounds for Ketohexokinase Inhibition” (Centennial Therapeutics, LLC, priority 2023, published 2024)

Experiments:
[1] = target: human KHK-C in engineered HepG2 cells (Homo sapiens (Human), UniProt P50053); assay: Cell-based potency assay (KHK-C-overexpressing HepG2 assay), F1P by LC/MS; details: fructose 30 mM, 5 min, F1P produced, geomean
Experimental: Testing inhibition effect of compounds against human KHK-C in engineered HepG2 cells.
Engineered HepG2 cells were generated using methods known to those of skill in the art. Briefly, HepG2 cells were incubated with lentivirus carrying a transgene encoding human KHK-C, and grown under antibiotic selection.
KHK-C-overexpressing HepG2 cells were grown in RPMI1640 supplemented media on T-182 cm^2 flask to near confluency (about 25-40×10^6 cells). The growth media was aspirated, the flask was washed with 10 mL PBS, and 4 mL trypsin solution (0.25% (w/v)+0.25% (w/v) EDTA) was added, followed by incubation at 37° C. for 3-5 mins. The cells were pelleted and resuspended in 2 mL complete media.
The cells were then placed in a 96-well plate at 20,000-40,000 cells per well and grown for 20-28 hours at 37° C. to allow adherence.
Inhibitor compounds were diluted in DMSO to 50 μM, then serially diluted with MEM media (ThermoFisher). Final inhibitor concentration ranged from 5000 nM to 0.32 nM.
The RPMI medium was removed from the plate of confluent cells. The plate was then incubated for 35 min at 37° C. with 0.1 mL of the diluted inhibitor compounds in MEM. After, an additional 0.1 mL of the diluted inhibitor compounds in MEM with fructose, or 0.1 mL of MEM media without inhibitor compound and/or fructose; yielding a final concentration of fructose at 30 mM was added. The plate was subsequently incubated for 5 min at 37° C., then placed on ice to stop the reactions.
Next 200 μL of cold 80% (v/v) methanol:water was added to al wells and placed in the −80° C. freezer for 1 hour with an adhesive seal. The plate was vortexed and cell debris removed by centrifugation. To measure F1P produced, the resulting supernatant fraction was analyzed by LC/MS.

Human recombinant KHK-A = Human recombinant KHK-A (Homo sapiens (Human), UniProt P50053); assay: KHK inhibition assay, recombinant isozyme (coupled pyruvate kinase/LDH, NADH absorbance 340 nm); type: biochemical; details: recombinant isozyme 6 nM, fructose 2 mM, ATP 0.1 mM
Experimental: (§1) Determination of Human and Rat recombinant KHK-A and KHK-C isozyme IC50 Values
(§2) An assay reagent cocktail was prepared by combining NADH, water, TEA, KCl, MgCl2, PEP, ATP, DTT, coupling enzymes (pyruvate kinase and lactate dehydrogenase, LDH) to final concentrations as shown in Table B.
(§3) To this was added the relevant KHK isozyme to a final concentration of 6 nM. Aliquots of each inhibitor compound were diluted via 5-fold serial dilutions to produce final concentrations ranging from 1000 nM to 0.064 nM. The inhibitor aliquots were added to the assay reagent cocktail containing KHK with fructose (at a concentration of 2 mM) in a 96-well plate. The absorbance at 340 nm was measured via spectrophotometry and inhibition was analyzed using non-linear regression.

Human recombinant KHK-C = Human recombinant KHK-C (Homo sapiens (Human), UniProt P50053); assay: as above; type: biochemical; details: recombinant isozyme 6 nM, fructose 2 mM, ATP 0.1 mM
Experimental: as §1, §2, §3

Rat recombinant KHK-C = Rat recombinant KHK-C (Rattus norvegicus (Rat), UniProt Q02974); assay: as above; type: biochemical; details: recombinant isozyme 6 nM, fructose 2 mM, ATP 0.1 mM
Experimental: as §1, §2, §3

Rat recombinant KHK-A = Rat recombinant KHK-A (Rattus norvegicus (Rat), UniProt Q02974); assay: as above; type: biochemical; details: recombinant isozyme 6 nM, fructose 2 mM, ATP 0.1 mM
Experimental: as §1, §2, §3

human KHK in HepG2 Cells = human KHK in HepG2 Cells (Homo sapiens (Human), UniProt P50053); assay: Cell-based potency assay (HepG2 assay), F1P by LC/MS; details: fructose 20 mM, 20 min, F1P produced
Experimental: Testing inhibition effect of compounds against human KHK in HepG2 Cells
HepG2 cells were grown in RPMI1640 supplemented media on 100 mm plates to near confluency (about 5-8×10^6 cells). The growth media was aspirated and 4 mL trypsin solution (0.25% (w/v)+0.25% (w/v) EDTA) was added, followed by incubation at 37° C. for 5-10 mins. The cells were pelleted and resuspended in 2 mL complete media.
The cells were then placed in a 96 well plate at 20,000-50,000 cells per well and grown for 20-28 hours at 37° C. to allow adherence.
Inhibitor compounds were diluted in DMSO to 50 μM, then serially diluted with MEM media (ThermoFisher). Final inhibitor concentration ranged from 1000 nM to 0.064 nM (5-fold dilution series).
The RPMI medium was removed from the plate of confluent cells. The plate was then incubated for 35 min at 37°, after which were added 0.1 mL of the diluted inhibitor compounds in MEM with fructose, 0.1 mL of MEM media without inhibitor compound or fructose, or trypsin; yielding a final concentration of fructose at 20 mM. The plate was subsequently incubated for 20 min at 37°, then placed on ice to stop the reactions.
Next, 200 μL of cold 80% (v/v) methanol:water was added to all wells, except the controls used to enumerate cell count. The plate was vortexed and cell debris removed by centrifugation. To measure F1P produced, the resulting supernatant fraction was analyzed by LC/MS.

Sequence of Rat recombinant KHK-A (Q02974 other isoform, or with tags, fused parts or gaps): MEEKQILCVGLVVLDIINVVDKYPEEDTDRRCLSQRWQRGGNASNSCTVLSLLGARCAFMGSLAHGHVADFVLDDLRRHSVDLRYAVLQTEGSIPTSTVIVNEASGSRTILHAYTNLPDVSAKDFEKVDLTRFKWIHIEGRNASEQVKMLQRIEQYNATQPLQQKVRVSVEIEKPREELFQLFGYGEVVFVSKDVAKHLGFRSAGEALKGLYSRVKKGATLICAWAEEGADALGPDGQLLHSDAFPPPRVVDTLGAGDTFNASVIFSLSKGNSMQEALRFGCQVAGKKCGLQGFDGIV
Sequence of Rat recombinant KHK-C (Q02974 whole entry): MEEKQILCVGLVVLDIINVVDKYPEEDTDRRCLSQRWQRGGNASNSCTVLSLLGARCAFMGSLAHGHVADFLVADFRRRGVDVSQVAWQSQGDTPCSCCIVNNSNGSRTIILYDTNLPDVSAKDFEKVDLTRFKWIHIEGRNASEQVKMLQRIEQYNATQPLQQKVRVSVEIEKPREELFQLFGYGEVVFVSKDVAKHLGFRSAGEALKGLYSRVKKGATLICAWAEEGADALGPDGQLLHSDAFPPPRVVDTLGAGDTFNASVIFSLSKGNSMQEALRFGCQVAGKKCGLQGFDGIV
Sequence of Human recombinant KHK-C (P50053 whole entry): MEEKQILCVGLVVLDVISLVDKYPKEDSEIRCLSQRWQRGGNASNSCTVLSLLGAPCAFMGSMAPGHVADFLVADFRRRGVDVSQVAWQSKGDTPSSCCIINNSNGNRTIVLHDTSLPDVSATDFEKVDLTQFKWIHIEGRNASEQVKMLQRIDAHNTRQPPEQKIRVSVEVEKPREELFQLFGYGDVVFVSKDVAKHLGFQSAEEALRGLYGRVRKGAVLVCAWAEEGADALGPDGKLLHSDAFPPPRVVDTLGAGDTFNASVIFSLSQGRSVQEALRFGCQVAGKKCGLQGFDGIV
Sequence of human KHK-C in engineered HepG2 cells (P50053 whole entry, stated change not applied): as the sequence (P50053 whole entry) above
Sequence of human KHK in HepG2 Cells (P50053 whole entry): as above
Sequence of Human recombinant KHK-A (P50053 other isoform, or with tags, fused parts or gaps): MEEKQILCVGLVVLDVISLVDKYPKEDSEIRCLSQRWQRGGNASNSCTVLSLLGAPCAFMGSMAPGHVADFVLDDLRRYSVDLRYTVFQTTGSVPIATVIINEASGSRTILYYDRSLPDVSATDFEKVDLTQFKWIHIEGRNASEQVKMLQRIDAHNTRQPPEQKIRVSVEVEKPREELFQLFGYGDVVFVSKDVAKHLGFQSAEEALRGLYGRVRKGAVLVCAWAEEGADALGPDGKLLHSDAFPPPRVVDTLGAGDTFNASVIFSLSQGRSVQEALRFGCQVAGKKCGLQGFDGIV

Compound	IC50 [1] [nM]	IC50 (Human recombinant KHK-A) [nM]	IC50 (Human recombinant KHK-C) [nM]	IC50 (Rat recombinant KHK-C) [nM]	IC50 (Rat recombinant KHK-A) [nM]	IC50 (human KHK in HepG2 Cells) [nM]
Cc1c(-c2cnn(C3CN(C)C3)c2)nc(N2C[C@@H](O)[C@@H]2C)nc1C(F)(F)F [Compound A12, (2S,3R)-2-methyl-1-{5-methyl-4-[1-(1-methyl-3-azetidinyl)-4-pyrazolyl]-6-(trifluoromethyl)-2-pyrimidinyl}-3-azetidinol]	33.5	4.1	1.05	3.3	1.3	1
Cc1c(-c2cnn(C3CN(C)C3)c2)nc(N2C[C@@H](O)[C@@H]2C)nc1C(F)F [Compound A21, (2S,3R)-1-{6-(difluoromethyl)-5-methyl-4-[1-(1-methyl-3-azetidinyl)-4-pyrazolyl]-2-pyrimidinyl}-2-methyl-3-azetidinol]	36.5	2.05	1.5	3.33	1.46	2
Cc1c(-c2cnn(C3CNC3)c2)nc(N2C[C@@H](O)[C@@H]2C)nc1C(F)F [Compound A35, (2S,3R)-1-{4-[1-(3-azetidinyl)-4-pyrazolyl]-6-(difluoromethyl)-5-methyl-2-pyrimidinyl}-2-methyl-3-azetidinol]	82	1.9	4.85	7.7	4.1	9
